# Activity calls are given as the source filed them.
# Assays:
# [1] = target: Beta-2 adrenergic receptor (Homo sapiens, UniProt P07550); experiment: beta2AR agonists driving receptor internalization, dose response, cell-based, FAP fluorogen, flow cytometry, cherry pick 1 (AID 588763); format: functional
# [2] = tested on: INS1; experiment: beta cell apoptosis inhibitors, cytokine rescue, dose response, luminescence, retest (AID 449756); format: functional, cell-based; conditions: Rattus norvegicus;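 also: cell death triggered by IL-1 beta plus TNF-alpha plus IFN-gamma mixture; protective hits raise ATP signal compared with cytokine alone wells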
# [3] = tested on: HEK293; experiment: inhibitors of LMP1-driven NF-kB reporter, dose response, cell-based, HEK293, luciferase, cherry-pick (AID 588343); format: functional; conditions: Homo sapiens
# [4] = target: Nonstructural protein 1 (Influenza A virus, UniProt Q194T2); format: functional, Influenza A virus (A/California/07/2009(H1N1))
# Sequence of Nonstructural protein 1 (Q194T2 whole entry): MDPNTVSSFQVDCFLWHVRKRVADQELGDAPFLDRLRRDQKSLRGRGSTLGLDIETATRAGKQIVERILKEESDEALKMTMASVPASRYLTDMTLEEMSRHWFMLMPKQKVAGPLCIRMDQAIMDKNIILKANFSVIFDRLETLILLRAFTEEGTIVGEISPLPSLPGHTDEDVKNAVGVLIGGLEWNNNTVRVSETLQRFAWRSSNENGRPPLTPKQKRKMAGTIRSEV
# [5] = cytotoxicity toward NIH3T3 fibroblasts, dose response, counter-screen, cell-based, ATP luminescence, mouse fibroblasts (AID 2010); format: functional;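 also: cells exposed to compound for about 90 hours before reading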
# [6] = target: Photoreceptor-specific nuclear receptor (Homo sapiens, UniProt Q9Y5X4); format: functional, cell-based;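 also: CHO-S cells with Gal4-NCOR and VP16-NR2E3 two-hybrid luciferase reporter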
# Sequence of Photoreceptor-specific nuclear receptor (Q9Y5X4 whole entry, the tested form may be a part): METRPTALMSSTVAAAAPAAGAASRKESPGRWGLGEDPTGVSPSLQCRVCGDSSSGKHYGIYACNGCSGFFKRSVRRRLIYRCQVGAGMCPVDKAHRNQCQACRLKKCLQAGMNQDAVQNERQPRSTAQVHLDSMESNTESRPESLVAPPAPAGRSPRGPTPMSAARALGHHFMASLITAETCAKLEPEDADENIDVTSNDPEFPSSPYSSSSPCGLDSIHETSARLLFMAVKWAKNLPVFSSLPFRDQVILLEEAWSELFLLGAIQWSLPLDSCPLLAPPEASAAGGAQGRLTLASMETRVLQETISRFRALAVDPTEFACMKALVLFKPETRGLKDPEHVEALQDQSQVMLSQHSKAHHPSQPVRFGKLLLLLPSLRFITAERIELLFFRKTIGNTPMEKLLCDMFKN
# [7] = AlphaScreen signal interference compounds, dose response, artefact control for ARNT-TACC3 interaction inhibitor project, biochemical, luminescence, cherry-pick (AID 651705); format: functional;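 also: AlphaScreen bead proximity signal that flags compounds interfering with the detection technology; potency reflects signal decrease which marks the compound as an assay artifact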
# [8] = inhibitors of intracellular T. cruzi replication, confirmation, NIH3T3 host cells, beta-gal luminescence (AID 2044); format: functional, cell-based;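 also: intracellular parasites grown in NIH/3T3 mouse fibroblasts as host cells; luminescent beta-galactosidase reporter signal from transgenic T. cruzi replicating inside host cells; inhibitors lower the luminescence signal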
# [9] = target: T1, Apoptotic protease-activating factor 1 (Homo sapiens, UniProt O14727); format: functional
# T1 sequence (O14727 whole entry): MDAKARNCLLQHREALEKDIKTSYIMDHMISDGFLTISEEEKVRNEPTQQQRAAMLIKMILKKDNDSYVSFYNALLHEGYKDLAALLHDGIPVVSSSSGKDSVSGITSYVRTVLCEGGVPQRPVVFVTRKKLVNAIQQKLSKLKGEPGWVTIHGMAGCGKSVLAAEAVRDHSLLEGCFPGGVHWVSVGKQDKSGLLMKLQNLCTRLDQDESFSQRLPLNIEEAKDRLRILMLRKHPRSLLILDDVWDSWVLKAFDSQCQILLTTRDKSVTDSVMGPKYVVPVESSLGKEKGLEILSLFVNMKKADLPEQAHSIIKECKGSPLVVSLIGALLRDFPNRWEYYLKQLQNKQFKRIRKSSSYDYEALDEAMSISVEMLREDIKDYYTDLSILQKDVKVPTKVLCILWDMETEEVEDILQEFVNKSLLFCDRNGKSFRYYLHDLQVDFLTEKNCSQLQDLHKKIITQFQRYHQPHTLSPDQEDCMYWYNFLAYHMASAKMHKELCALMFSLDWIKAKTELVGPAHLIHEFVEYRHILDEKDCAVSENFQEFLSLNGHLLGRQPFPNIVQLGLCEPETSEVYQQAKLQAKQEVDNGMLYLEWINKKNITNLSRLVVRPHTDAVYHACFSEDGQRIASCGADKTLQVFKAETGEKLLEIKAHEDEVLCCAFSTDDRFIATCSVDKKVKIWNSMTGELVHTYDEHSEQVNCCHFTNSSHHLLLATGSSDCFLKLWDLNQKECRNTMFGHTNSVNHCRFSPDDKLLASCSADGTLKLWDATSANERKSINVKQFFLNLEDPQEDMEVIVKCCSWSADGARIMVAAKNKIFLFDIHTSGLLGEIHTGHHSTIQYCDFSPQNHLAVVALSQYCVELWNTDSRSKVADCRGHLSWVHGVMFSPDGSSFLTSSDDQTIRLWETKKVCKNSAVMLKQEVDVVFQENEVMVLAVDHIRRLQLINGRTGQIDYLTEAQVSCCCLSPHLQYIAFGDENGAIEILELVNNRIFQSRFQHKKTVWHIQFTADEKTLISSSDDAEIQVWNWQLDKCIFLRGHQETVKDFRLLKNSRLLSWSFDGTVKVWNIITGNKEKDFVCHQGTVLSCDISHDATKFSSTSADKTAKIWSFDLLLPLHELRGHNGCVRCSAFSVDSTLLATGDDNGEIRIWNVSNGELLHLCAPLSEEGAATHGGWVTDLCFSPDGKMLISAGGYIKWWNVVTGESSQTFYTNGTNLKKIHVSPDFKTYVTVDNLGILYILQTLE
# [10] = target: Tyrosine-protein phosphatase non-receptor type 11 (Homo sapiens, UniProt Q06124); experiment: SHP2 phosphatase inhibition, dose response, selectivity assay for STEP inhibitor project, biochemical (AID 602367); format: functional; conditions: read-out: IC50_Mean
# Sequence of Tyrosine-protein phosphatase non-receptor type 11 (Q06124 whole entry): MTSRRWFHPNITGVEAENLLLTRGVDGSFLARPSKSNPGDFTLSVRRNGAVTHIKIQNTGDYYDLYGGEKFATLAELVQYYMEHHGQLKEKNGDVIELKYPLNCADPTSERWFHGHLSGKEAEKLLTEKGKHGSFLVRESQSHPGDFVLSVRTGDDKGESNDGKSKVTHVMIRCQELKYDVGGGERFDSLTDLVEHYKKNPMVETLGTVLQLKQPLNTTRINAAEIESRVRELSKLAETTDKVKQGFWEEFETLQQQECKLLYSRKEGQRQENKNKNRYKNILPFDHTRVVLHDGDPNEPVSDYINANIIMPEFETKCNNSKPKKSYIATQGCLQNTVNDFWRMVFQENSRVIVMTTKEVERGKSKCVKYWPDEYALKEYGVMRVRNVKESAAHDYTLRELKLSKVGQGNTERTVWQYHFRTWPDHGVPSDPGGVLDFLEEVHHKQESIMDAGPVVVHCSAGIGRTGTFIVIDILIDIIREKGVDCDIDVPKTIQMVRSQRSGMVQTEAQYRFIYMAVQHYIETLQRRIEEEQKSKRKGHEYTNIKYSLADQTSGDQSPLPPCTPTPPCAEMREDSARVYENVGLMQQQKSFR
# [11] = target: Tyrosine-protein phosphatase non-receptor type 5 (Homo sapiens, UniProt P54829); experiment: STEP phosphatase inhibitors, confirmation, biochemical, fluorescence intensity, uHTS hits (AID 602372); format: functional; conditions: read-out: IC50_Mean
# Sequence of Tyrosine-protein phosphatase non-receptor type 5 (P54829 whole entry): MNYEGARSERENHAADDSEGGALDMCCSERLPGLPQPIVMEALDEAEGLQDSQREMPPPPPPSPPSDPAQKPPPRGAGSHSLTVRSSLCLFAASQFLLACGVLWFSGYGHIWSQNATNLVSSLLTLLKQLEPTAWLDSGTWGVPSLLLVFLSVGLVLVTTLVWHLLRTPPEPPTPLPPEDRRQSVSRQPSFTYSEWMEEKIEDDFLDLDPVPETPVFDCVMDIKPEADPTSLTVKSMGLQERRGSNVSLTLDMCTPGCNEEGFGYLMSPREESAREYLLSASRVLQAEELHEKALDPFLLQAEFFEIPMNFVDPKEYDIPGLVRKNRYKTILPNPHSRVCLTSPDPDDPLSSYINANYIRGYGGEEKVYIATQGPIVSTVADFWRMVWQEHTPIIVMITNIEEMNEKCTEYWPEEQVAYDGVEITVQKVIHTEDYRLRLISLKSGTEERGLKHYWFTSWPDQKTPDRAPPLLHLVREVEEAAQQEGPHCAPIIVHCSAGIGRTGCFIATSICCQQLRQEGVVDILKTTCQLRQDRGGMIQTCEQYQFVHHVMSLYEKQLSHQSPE
# [12] = target: Dual specificity protein phosphatase 3 (Homo sapiens, UniProt P51452); experiment: VHR phosphatase inhibition, dose response, selectivity assay for STEP inhibitor project, biochemical (AID 602374); format: functional; conditions: read-out: IC50_Mean
# Sequence of Dual specificity protein phosphatase 3 (P51452 whole entry): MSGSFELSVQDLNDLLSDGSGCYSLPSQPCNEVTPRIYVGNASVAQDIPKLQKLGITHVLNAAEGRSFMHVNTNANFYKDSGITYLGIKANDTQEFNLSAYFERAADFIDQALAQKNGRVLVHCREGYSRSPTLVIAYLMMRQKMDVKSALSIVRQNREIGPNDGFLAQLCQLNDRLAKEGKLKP
# [13] = target: T2, Insulin-degrading enzyme (Homo sapiens, UniProt P14735); experiment: activators of endogenous IDE in HEK cells, dose response, cell-based, fluorescence polarization (AID 588439); format: functional
# T2 sequence (P14735 whole entry): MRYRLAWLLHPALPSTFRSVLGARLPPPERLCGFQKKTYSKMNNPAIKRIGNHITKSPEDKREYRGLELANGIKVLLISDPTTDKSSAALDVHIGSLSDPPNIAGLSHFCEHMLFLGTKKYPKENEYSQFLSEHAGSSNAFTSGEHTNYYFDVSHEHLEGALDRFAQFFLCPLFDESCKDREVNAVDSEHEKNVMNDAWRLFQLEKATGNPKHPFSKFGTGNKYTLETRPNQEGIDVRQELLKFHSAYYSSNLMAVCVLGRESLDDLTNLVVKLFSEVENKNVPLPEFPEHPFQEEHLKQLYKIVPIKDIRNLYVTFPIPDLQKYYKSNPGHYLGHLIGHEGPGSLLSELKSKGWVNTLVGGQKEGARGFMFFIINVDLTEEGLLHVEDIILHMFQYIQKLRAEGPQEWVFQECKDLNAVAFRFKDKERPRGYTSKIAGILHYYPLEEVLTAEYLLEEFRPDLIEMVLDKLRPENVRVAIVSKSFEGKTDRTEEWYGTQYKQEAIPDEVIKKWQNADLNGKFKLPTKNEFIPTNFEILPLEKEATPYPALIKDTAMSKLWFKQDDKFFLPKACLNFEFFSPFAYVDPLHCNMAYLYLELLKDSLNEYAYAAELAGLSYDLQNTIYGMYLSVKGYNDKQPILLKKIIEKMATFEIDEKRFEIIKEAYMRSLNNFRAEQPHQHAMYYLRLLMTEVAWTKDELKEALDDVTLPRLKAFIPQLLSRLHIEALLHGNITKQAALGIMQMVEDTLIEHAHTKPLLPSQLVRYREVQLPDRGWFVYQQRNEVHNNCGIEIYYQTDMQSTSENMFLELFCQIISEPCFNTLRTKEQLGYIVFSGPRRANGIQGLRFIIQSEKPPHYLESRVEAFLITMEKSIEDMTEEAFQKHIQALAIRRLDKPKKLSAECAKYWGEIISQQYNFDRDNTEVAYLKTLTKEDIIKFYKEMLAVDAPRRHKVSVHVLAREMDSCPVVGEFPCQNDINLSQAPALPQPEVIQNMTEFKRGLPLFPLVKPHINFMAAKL
# [14] = tested on: HEK293; experiment: HEK cell cytotoxicity by LDH release, dose response, cytotoxicity control for IDE activator project, fluorescence, HEK cells (AID 588440); format: functional, cell-based; conditions: Homo sapiens;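 also: cytotoxicity by LDH release measuring loss of membrane integrity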
# [15] = target: T2, Insulin-degrading enzyme; experiment: activators of recombinant IDE enzyme, dose response, counter-screen for IDE activator project, biochemical, fluorescence polarization (AID 588681)
# [16] = tested on: HEK293; experiment: optical interference in Abeta FP readout, dose response, artefact control for IDE activator project, biochemical, fluorescence polarization (AID 588442); format: functional, cell-based; conditions: Homo sapiens
# [17] = Counterscreen for activators of the function of SWI/SNF related, matrix associated, actin dependent regulator of chromatin, subfamily a, member 2 (SMARCA2, BRM): Luminescence-based cell-based high throughput dose response assay to identify non-selective compounds using the VP16 reporter assay.; format: functional
# [18] = target: SWI/SNF-related matrix-associated actin-dependent regulator of chromatin subfamily A member 2 (Homo sapiens, UniProt P51531); experiment: Luminescence-based cell-based high throughput dose response assay to identify activators of the function of SWI/SNF related, matrix associated, actin dependent regulator of chromatin, subfamily a, member 2 (SMARCA2, BRM).; format: functional
# Sequence of SWI/SNF-related matrix-associated actin-dependent regulator of chromatin subfamily A member 2 (P51531 whole entry): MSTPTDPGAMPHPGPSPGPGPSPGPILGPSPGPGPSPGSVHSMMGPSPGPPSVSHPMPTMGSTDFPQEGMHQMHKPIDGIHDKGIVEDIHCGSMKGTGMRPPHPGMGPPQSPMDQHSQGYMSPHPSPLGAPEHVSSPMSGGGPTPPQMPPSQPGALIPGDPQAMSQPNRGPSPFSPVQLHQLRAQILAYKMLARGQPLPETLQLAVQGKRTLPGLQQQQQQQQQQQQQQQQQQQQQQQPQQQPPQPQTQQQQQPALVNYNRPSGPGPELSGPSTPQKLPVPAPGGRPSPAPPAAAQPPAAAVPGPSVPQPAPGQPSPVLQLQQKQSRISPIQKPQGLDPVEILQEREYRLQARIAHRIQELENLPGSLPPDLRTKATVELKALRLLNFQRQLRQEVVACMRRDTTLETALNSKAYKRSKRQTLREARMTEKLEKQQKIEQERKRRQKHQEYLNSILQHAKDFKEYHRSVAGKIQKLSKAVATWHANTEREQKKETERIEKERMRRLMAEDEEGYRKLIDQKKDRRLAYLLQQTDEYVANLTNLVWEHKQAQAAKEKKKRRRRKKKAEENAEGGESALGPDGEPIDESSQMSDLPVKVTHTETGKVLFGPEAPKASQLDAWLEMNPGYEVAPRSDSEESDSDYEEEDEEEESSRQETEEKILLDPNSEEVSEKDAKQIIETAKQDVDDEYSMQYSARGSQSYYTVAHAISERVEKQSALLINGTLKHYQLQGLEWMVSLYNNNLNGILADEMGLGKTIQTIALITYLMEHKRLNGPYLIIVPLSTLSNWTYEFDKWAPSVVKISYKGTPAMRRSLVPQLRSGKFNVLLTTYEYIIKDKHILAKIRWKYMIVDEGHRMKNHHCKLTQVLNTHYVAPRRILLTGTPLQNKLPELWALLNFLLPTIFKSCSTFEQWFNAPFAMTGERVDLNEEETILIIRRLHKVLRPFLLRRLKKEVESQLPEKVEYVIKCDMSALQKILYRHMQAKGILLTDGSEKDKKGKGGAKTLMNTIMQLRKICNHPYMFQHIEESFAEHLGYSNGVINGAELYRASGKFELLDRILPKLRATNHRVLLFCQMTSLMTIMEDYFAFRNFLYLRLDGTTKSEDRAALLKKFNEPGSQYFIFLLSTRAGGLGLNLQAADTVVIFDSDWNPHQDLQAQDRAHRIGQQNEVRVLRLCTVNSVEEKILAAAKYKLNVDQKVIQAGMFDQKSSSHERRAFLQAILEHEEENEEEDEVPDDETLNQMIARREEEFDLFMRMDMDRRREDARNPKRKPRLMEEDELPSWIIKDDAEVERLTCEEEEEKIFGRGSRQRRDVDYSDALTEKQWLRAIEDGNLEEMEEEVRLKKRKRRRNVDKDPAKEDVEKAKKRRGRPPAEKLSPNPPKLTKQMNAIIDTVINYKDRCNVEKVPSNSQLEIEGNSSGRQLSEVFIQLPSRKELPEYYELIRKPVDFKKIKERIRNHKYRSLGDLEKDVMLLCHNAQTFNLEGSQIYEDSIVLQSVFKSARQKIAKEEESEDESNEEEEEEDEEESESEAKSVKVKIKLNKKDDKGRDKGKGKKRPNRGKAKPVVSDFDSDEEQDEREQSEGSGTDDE
# Sequence of Beta-2 adrenergic receptor (P07550 whole entry): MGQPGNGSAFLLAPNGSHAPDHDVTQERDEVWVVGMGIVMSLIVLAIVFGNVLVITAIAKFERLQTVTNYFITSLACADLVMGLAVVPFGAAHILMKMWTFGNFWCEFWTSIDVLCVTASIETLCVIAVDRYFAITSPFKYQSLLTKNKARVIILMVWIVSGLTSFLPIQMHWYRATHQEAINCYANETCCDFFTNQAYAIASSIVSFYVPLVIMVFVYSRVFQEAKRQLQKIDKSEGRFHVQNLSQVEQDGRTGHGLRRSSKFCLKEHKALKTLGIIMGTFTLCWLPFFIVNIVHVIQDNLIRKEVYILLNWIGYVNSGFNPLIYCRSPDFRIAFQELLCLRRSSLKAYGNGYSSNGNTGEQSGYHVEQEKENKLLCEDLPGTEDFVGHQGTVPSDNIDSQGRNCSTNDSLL
smiles,measurement,setting,value
Cc1c(C(=O)N2CCc3ccccc3C2)oc2ccc(S(=O)(=O)N3CCCCCC3)cc12,EC50,[1],1.46 µM (active)
CCC(C)Nc1nc(-c2ccccn2)nc2ccccc12 (stereo not given),AC50,[2],2.89 µM (active)
same,AC50,[3],4.94 µM (active)
same,IC50,[4],25.5 µM (active)
same,EC50,[5],> 30 µM (not active)
same,IC50,[6],4.14 µM (active)
same,AC50,[7],117 µM (active)
same,EC50,[8],1.33 µM (active)
CC(=O)c1ccc2c(c1)c(C#N)c1ccccc1[n+]2[O-],IC50,[9],88.8 µM (active)
Cc1ccc(N=C(S)N(CCN(C)C)Cc2cccs2)c(C)c1,IC50,[10],3.37 µM (active)
same,IC50,[11],24.6 µM (inactive)
same,IC50,[12],1.36 µM (active)
CC(OC(=O)c1c2c(nc3ccccc13)/C(=C\c1ccc3c(c1)OCO3)CCC2)C(=O)Nc1ccc(S(N)(=O)=O)cc1 (stereo not given),EC50,[13],> 54.7 µM (inactive)
same,IC50,[14],> 89.2 µM (inactive)
same,EC50,[15],> 54.7 µM (inactive)
same,EC50,[16],> 54.7 µM (inactive)
O=C(NC1(Cc2ccc(O)cc2)CCCCC1)c1ccccc1,EC50,[1],7.42 µM (active)
Cc1cccc(C(=O)N[C@H](C(=O)Nc2ncc(C)s2)C(C)C)c1,IC50,[6],0.0592 µM (active)
same,EC50,[17],> 91.1 µM (inactive)
same,EC50,[18],> 91.1 µM (inactive)

# From ChEMBL document CHEMBL1201862, “PubChem BioAssay data set” (2004)
